The source of these data is patent US20140274992A1, “CEFTOLOZANE PHARMACEUTICAL COMPOSITIONS” (Cubist Pharmaceuticals, Inc., priority 2013, published 2014).

Each structure is given as a SMILES string.

This series can be described thus: Intrinsic pH of ceftolozane in solution. The series is classed as physicochemical. As to conditions: solution (2%). On the procedure:
A formulation close to physiologic pH was targeted. This necessitates an alkalizing agent due to intrinsic pH 1.92 of ceftolozane in solution (2%). The initial study of alkalizing agents included sodium hydroxide, L-arginine, tris, sodium bicarbonate, meglumine, diethanolamine, and triethanolamine. Samples containing 100 mg ceftolozane sulfate, 22.9 mg sodium chloride, 200 mg maltose, and 2 mg citric acid anhydrous were prepared and adjusted to about pH 4. The samples were lyophilized and powders stored at 70° C. for 3 days, 60° C. for 3, 6 and 9 days and at 40° C. for one month. The stored samples were then analyzed for ceftolozane content.

Take `Cn1c(N)c(NC(=O)NCCN)c[n+]1CC1=C(C(=O)[O-])N2C(=O)[C@@H](NC(=O)/C(=N\OC(C)(C)C(=O)O)c3nsc(N)n3)[C@H]2SC1` [ceftolozane]: the “intrinsic pH of ceftolozane in solution” value stood at 1.92.
